Measured values from PubChem BioAssay AID330 (DTP/NCI, 2004).
Where “and” joins values, the source holds several entries; their conditions need not be identical. Identical values can stand only once. Inconclusive results and toxic doses are left out. The calls were made as follows: active = survival T/C of 150% or more; inactive = T/C below 125% in these data. Peptide text beside a SMILES is read from it. * marks the point of attachment. Boc = CC(C)(C)OC(=O)*

System: P388 leukemia ip, CD2F1 mice, survival T/C
Experiment: NCI In Vivo Anticancer Drug Screen. Data for tumor model P388 Leukemia (intraperitoneal) in CD2F1 (CDF1) mice
Settings: endpoint: median survival time, higher = longer survival
Method in brief: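 Mice carrying the transplanted tumor received test compound or vehicle. Survival was recorded in each group, and the value is the treated-group measurement divided by that of the vehicle-treated control group.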

[1] = dose: 60.0 mg/kg/injection, schedule: Q01DX005 (ip), vehicle: saline with Tween-80
[2] = dose: 120.0 mg/kg/injection, schedule: Q01DX005 (ip), vehicle: saline with Tween-80
[3] = dose: 240.0 mg/kg/injection, schedule: Q01DX005 (ip), vehicle: saline with Tween-80
[4] = dose: 50.0 mg/kg/injection, schedule: Q01DX005 (ip), vehicle: Klucel (hydroxypropylcellulose) (HPC)
[5] = dose: 100.0 mg/kg/injection, schedule: Q01DX005 (ip), vehicle: Klucel (hydroxypropylcellulose) (HPC)
[6] = dose: 200.0 mg/kg/injection, schedule: Q01DX005 (ip), vehicle: Klucel (hydroxypropylcellulose) (HPC)

Measured: T/C

Nc1ncnc2c1ccn2CC(O)COP(=O)(O)O (centres undefined)
inactive: dose: 50.0 mg/kg/injection, schedule: Q01DX005 (ip), vehicle: distilled water + alcohol 104 % of control | dose: 100.0 mg/kg/injection, schedule: Q01DX005 (ip), vehicle: distilled water + alcohol 100 % of control | dose: 200.0 mg/kg/injection, schedule: Q01DX005 (ip), vehicle: distilled water + alcohol 100 % of control

Nc1nnc2nc(CC(=O)c3ccccc3)c(CC(=O)c3ccccc3)nn12
inactive: dose: 60.0 mg/kg/injection, schedule: Q01DX005 (ip), vehicle: saline 95 % of control | dose: 120.0 mg/kg/injection, schedule: Q01DX005 (ip), vehicle: saline 94 % of control | dose: 240.0 mg/kg/injection, schedule: Q01DX005 (ip), vehicle: saline 100 % of control

CCOC(=O)CNC(=O)NNC(=O)OCC
inactive: dose: 6.25 mg/kg/injection, schedule: Q01DX009 (ip), vehicle: saline 98 % of control | dose: 12.5 mg/kg/injection, schedule: Q01DX009 (ip), vehicle: saline 91 % of control | dose: 50.0 mg/kg/injection, schedule: Q01DX009 (ip), vehicle: saline 100 % of control | dose: 100.0 mg/kg/injection, schedule: Q01DX009 (ip), vehicle: saline 100 % of control | dose: 200.0 mg/kg/injection, schedule: Q01DX009 (ip), vehicle: saline 100 % of control

O=C(Nc1ccccc1)ON=C1CCCCC1
inactive: [1] 101 % of control | [2] 96 % of control | [3] 99 % of control

CCC(C)C(NC(=O)OC(C)(C)C)C(=O)NC(CCSC)C(N)=O (stereo not drawn) (Boc-Ile-Met-NH2; configuration not given here)
inactive: [4] 97 % of control | [5] 95 % of control | [6] 89 % of control

CN(C)c1ccc([N+](C)(C)Cc2ccc(C[N+](C)(C)c3ccc([N+](C)(C)Cc4ccc(CCl)cc4)cc3)cc2)cc1
inactive: dose: 3.13 mg/kg/injection, schedule: Q01DX001 (ip), vehicle: saline 108 % of control | dose: 6.25 mg/kg/injection, schedule: Q01DX001 (ip), vehicle: saline 112 % of control and 97 % of control

O=C(NC12CC3CC(CC(C3)C1)C2)OCCN1CCN(CCCN2c3ccccc3Sc3ccc(C(F)(F)F)cc32)CC1
inactive: dose: 25.0 mg/kg/injection, schedule: Q04DX002 (ip), vehicle: saline with Tween-80 97 % of control | dose: 50.0 mg/kg/injection, schedule: Q04DX002 (ip), vehicle: saline with Tween-80 101 % of control | dose: 100.0 mg/kg/injection, schedule: Q04DX002 (ip), vehicle: saline with Tween-80 104 % of control and 113 % of control

Cc1ccc(S(=O)(=O)NNC(=O)CCn2[nH]c(=O)c(Cl)c(Cl)c2=O)cc1
inactive: [1] 99 % of control | [2] 103 % of control | [3] 98 % of control

O=[N+]([O-])c1c(Nc2ccccc2)ncnc1Nc1ccccc1
inactive: dose: 100.0 mg/kg/injection, schedule: Q04DX003 (ip), vehicle: saline with Tween-80 105 % of control | dose: 200.0 mg/kg/injection, schedule: Q04DX003 (ip), vehicle: saline with Tween-80 106 % of control | dose: 400.0 mg/kg/injection, schedule: Q04DX003 (ip), vehicle: saline with Tween-80 100 % of control

COc1cccc2c1C(=O)c1c(O)c3c(c(O)c1C2=O)CC(O)(C(C)=O)CC3OC1CC(N)C(O)C(C)O1 (centres undefined)
inactive: dose: 1.5 mg/kg/injection, schedule: Q01DX009 (ip), vehicle: water 103 % of control | dose: 2.9 mg/kg/injection, schedule: Q01DX009 (ip), vehicle: saline 102 % of control | dose: 3.0 mg/kg/injection, schedule: Q01DX009 (ip), vehicle: water 110 % of control | dose: 6.0 mg/kg/injection, schedule: Q01DX009 (ip), vehicle: water 110 % of control | dose: 8.0 mg/kg/injection, schedule: Q04DX003 (ip), vehicle: water 114 % of control | dose: 11.0 mg/kg/injection, schedule: Q04DX003 (ip), vehicle: water 103 % of control and 109 % of control | dose: 12.0 mg/kg/injection, schedule: Q01DX009 (ip), vehicle: water 116 % of control | dose: 15.0 mg/kg/injection, schedule: Q04DX003 (ip), vehicle: water 121 % of control | dose: 16.0 mg/kg/injection, schedule: Q04DX003 (ip), vehicle: water 110 % of control and 122 % of control | dose: 21.9 mg/kg/injection, schedule: Q04DX003 (ip), vehicle: water 97 % of control and 118 % of control | dose: 24.0 mg/kg/injection, schedule: Q01DX009 (ip), vehicle: water 108 % of control | dose: 40.0 mg/kg/injection, schedule: Q01DX009 (ip), vehicle: water 104 % of control | dose: 43.8 mg/kg/injection, schedule: Q04DX003 (ip), vehicle: water 106 % of control | dose: 64.0 mg/kg/injection, schedule: Q04DX003 (ip), vehicle: water 110 % of control | dose: 240.0 mg/kg/injection, schedule: Q04DX003 (ip), vehicle: water 101 % of control | dose: 350.0 mg/kg/injection, schedule: Q04DX003 (ip), vehicle: water 97 % of control
178 % of control [middle of 14 runs]: dose: 10.0 mg/kg/injection, schedule: Q01DX009 (ip), vehicle: water
active: dose: 0.63 mg/kg/injection, schedule: Q01DX009 (ip), vehicle: water 150 % of control and 163 % of control | dose: 1.25 mg/kg/injection, schedule: Q01DX009 (ip), vehicle: water 158 % of control [middle of 7 runs] | dose: 2.5 mg/kg/injection, schedule: Q01DX009 (ip), vehicle: water 160 % of control [middle of 16 runs] | dose: 3.13 mg/kg/injection, schedule: Q01DX009 (ip), vehicle: water 155 % of control | dose: 5.0 mg/kg/injection, schedule: Q01DX009 (ip), vehicle: water 167 % of control [middle of 17 runs] | dose: 6.25 mg/kg/injection, schedule: Q01DX009 (ip), vehicle: water 171 % of control | dose: 12.5 mg/kg/injection, schedule: Q01DX009 (ip), vehicle: water 174 % of control | dose: 20.0 mg/kg/injection, schedule: Q01DX009 (ip), vehicle: other 155 % of control | dose: 23.4 mg/kg/injection, schedule: Q01DX009 (ip), vehicle: saline 188 % of control | dose: 25.0 mg/kg/injection, schedule: Q01DX009 (ip), vehicle: water 197 % of control | dose: 87.5 mg/kg/injection, schedule: Q04DX003 (ip), vehicle: water 157 % of control | dose: 88.0 mg/kg/injection, schedule: Q04DX003 (ip), vehicle: water 182 % of control | dose: 120.0 mg/kg/injection, schedule: Q04DX003 (ip), vehicle: water 160 % of control | dose: 128.0 mg/kg/injection, schedule: Q04DX003 (ip), vehicle: water 168 % of control and 172 % of control | dose: 175.0 mg/kg/injection, schedule: Q04DX003 (ip), vehicle: water 182 % of control | dose: 256.0 mg/kg/injection, schedule: Q04DX003 (ip), vehicle: water 177 % of control

NC(=S)c1ccc2ccccc2c1
inactive: [4] 100 % of control | [5] 100 % of control | [6] 100 % of control

[N-]=[N+]=NP1(=O)OC(c2ccccc2)=CCN1c1ccccc1 (centres undefined)
inactive: [4] 105 % of control | [5] 103 % of control | [6] 100 % of control

O=Nc1ccc(Cl)cc1
inactive: dose: 12.5 mg/kg/injection, schedule: Q04DX003 (ip), vehicle: Klucel (hydroxypropylcellulose) (HPC) 103 % of control | dose: 25.0 mg/kg/injection, schedule: Q04DX003 (ip), vehicle: Klucel (hydroxypropylcellulose) (HPC) 101 % of control | dose: 50.0 mg/kg/injection, schedule: Q04DX003 (ip), vehicle: Klucel (hydroxypropylcellulose) (HPC) 93 % of control

O=CC(CO)CC(C=O)n1cnc2c(=O)[nH]cnc21 (centres undefined)
active: dose: 150.0 mg/kg/injection, schedule: Q01DX005 (ip), vehicle: saline 155 % of control and 158 % of control | dose: 300.0 mg/kg/injection, schedule: Q01DX005 (ip), vehicle: saline 165 % of control and 174 % of control

Cc1ccc(Cc2ccc[nH]2)cc1
inactive: dose: 100.0 mg/kg/injection, schedule: Q04DX002 (ip), vehicle: distilled water + Tween-80 + alcohol 100 % of control | dose: 200.0 mg/kg/injection, schedule: Q04DX002 (ip), vehicle: distilled water + Tween-80 + alcohol 100 % of control | dose: 400.0 mg/kg/injection, schedule: Q04DX002 (ip), vehicle: distilled water + Tween-80 + alcohol 103 % of control

N#C/C(=C/c1ccc(Cl)cc1)C(N)=O
inactive: dose: 25.0 mg/kg/injection, schedule: Q01DX001 (ip), vehicle: saline with Tween-80 102 % of control | dose: 50.0 mg/kg/injection, schedule: Q01DX001 (ip), vehicle: saline with Tween-80 104 % of control | dose: 100.0 mg/kg/injection, schedule: Q01DX001 (ip), vehicle: saline with Tween-80 97 % of control | dose: 200.0 mg/kg/injection, schedule: Q01DX001 (ip), vehicle: saline with Tween-80 97 % of control
